Legend:
[1] = test system: transgenic Indica1 rice callus, ACC gene containing I1781(Am)L and I2041(Am)N; assay: Growth of transgenic Indica1 callus on selection media; format: cell-based, Oryza sativa; settings: construct I1781(Am)L
Procedure: (§1) Indica1 and Nipponbare rice callus transformation was carried out essentially as described in Hiei and Komari (2008) with the exception of media substitutions as specified (see attached media table for details). Callus was induced on R001M media for 4-8 weeks prior to use in transformation. Agrobacterium utilized was LBA4404(pSB1) (Ishida et al. 1996) transformed with RLM185 (L. Mankin, unpublished: contains DsRed and a mutant AHAS for selection), ACC gene containing I1781(Am)L, ACC gene containing I1781(Am)L and W2027C, ACC gene containing I1781(Am)L and I2041(Am)N, or ACC gene containing I1781(Am)A or wild type which also contains a mutant AHAS gene for selection. Agrobacterium grown for 1-3 days on solid media was suspended in M-LS-002 medium and the OD660 adjusted to approximately 0.1. Callus was immersed in the Agrobacterium solution for approximately 30 minutes. Liquid was removed, and then callus was moved to filter paper for co-culture on semi-solid rice cc media. Co-culture was for 3 days in the dark at 24° C. Filters containing rice callus were directly transferred to R001M media containing Timentin for 1-2 weeks for recovery and cultured in the dark at 30° C. Callus was subdivided onto fresh R001M media with Timentin and supplemented with 100 μM Imazethapyr, 10 μM Cycloxydim or 2.5 μM Tepraloxydim. After 3-4 weeks, callus was transferred to fresh selection media. Following another 3-4 weeks, growing callus was transferred to fresh media and allowed to grow prior to Taqman analysis. Taqman analysis was for the Nos terminator and was conducted to provide for a molecular confirmation of the transgenic nature of the selected calli. Growth of transgenic calli was measured with various selection agents by subculturing calli on media containing either 10 μM Cycloxydim or Haloxyfop, 2.5 μM Tepraloxydim or 100 μM Imazethapry. Calli size was measured from scanned images following initial subculture and then after approximately 1 month of growth.
(§2) As can be observed in Table 7, the double mutant constructs allowed for growth on both Cycloxydim and Tepraloxydim in addition to Haloxyfop. The levels utilized in these growth experiments are inhibitory for wild type material. Growth was measured as a % change in size following 1 month of culture on the selection media.

[2] = test system: transgenic Indica1 rice callus, ACC gene containing I1781(Am)L and W2027(Am)C; assay: as above; format: cell-based, Oryza sativa; settings: construct I1781(Am)L
Procedure: as §1, §2

[3] = test system: rice plants containing the I1,781(Am)L heterozygous mutation; format: in vivo, Oryza sativa; settings: 400-1600 g ai/ha with 0.1% methylated seed oil; rated 1 and 2 weeks after treatment
Procedure: (§3) Selected mutants and escapes were transferred to small pots. Wild-type cultivars and 3 biovars of red rice were germinated from seed to serve as controls.
(§4) After ca. 3 weeks post-transplant. M0 regenerants were sprayed using a track sprayer with 400-1600 g ai/ha cycloxydim (BAS 517H) supplemented with 0.1% methylated seed oil. After the plants had adapted to greenhouse conditions, a subset were sprayed with 800 g ai/ha cycloxydim. Once sprayed, plants were kept on drought conditions for 24 hours before being watered and fertilized again. Sprayed plants were photographed and rated for herbicide injury at 1 (FIG. 3) and 2 weeks after treatment (FIG. 4). […] FIGS. 5-15 provide nucleic acid and/or amino acid sequences of acetyl-Coenzyme A carboxylase enzymes from various plants. FIG. 17 provides a graph showing results for mutant rice versus various ACCase inhibitors.

[4] = test system: ACCase-inhibitor tolerant rice plants; assay: Field treatment of ACCase-inhibitor tolerant rice; format: in vivo, Oryza sativa; settings: 600 g/ha; data not shown
[5] = test system: control plants (wild-type cultivars, red rice) and tissue culture escapes; assay: Greenhouse track-sprayer test, herbicide injury rating; format: in vivo, Oryza sativa; settings: 400-1600 g ai/ha with 0.1% methylated seed oil; rated 1 and 2 weeks after treatment
Procedure: as §3, §4

With `CCc1cnc(C2=NC(C)(C(C)C)C(=O)N2)c(C(=O)O)c1` (centres unmarked) [P100, Imazethapyr] the “Growth, % change in size following 1 month of culture on the selection media” value (“Growth, % change … on the selection media” below) ([1]; 100 μM in selection media) was 634% and the “Growth, % change … on the selection media” value ([2]; 100 μM in selection media) was 739%.

`CCCC(=NOCC)C1=C(O)CC(C2CCCSC2)CC1=O` (centres unmarked) [cycloxydim] was tested, and the herbicide injury [3] was “No injury”, the “herbicide tolerance in the field” value [4] was “Herbicide tolerance phenotypes as described herein have also been exhibited” and the “Growth, % change … on the selection media” value ([1]; 10 μM in selection media) was 884%. For the same molecule, the “Growth, % change … on the selection media” value ([2]; 10 μM in selection media) was 867% and the herbicide injury [5] was “heavily damaged”.

With `CC(Oc1ccc(Oc2ncc(C(F)(F)F)cc2Cl)cc1)C(=O)O` (centres unmarked) [haloxyfop] the “Growth, % change … on the selection media” value ([1]; 10 μM in selection media) was 1613% and the “Growth, % change … on the selection media” value ([2]; 10 μM in selection media) was 1669%.

`CC/C(=N\OC/C=C/Cl)C1=C(O)CC(C2CCOCC2)CC1=O` (centres unmarked) [tepraloxydim] was tested, and the “Growth, % change … on the selection media” value ([1]; 2.5 μM in selection media) was 1360% and the “Growth, % change … on the selection media” value ([2]; 2.5 μM in selection media) was 1416%.

Reference: US12048281B2, “Method for treating post-emergent rice” (BASF SE, priority 2009, dated 2024)
